Data reported in publication PMC10447463, “Data-mining unveils structure–property–activity correlation of viral infectivity enhancing self-assembling peptides” (Nature Communications, 2023).
Where two headings read alike, the source gives them in different places.

How the values were obtained:
[1] = Conversion rate (CR) assay with fluorescamine; assay type: physicochemical; set-up: key to CR: % = 100−100×filtrate/original fluorescence intensity; settings: for CR / %: Fig. S7 panel B; for CR / % / CR: conversion rate
How it was run: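 In the conversion assay, unconverted peptide passing a 3 kDa membrane at 4 °C was labelled with fluorescamine alongside unfiltered PNF, both in DMSO, and read at 365/470 nm after 20 min at room temperature. β-sheet content relied on ATR FT-IR of lyophilized fibril powder.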

[2] = Turbidity, derived count rate of scattered light; assay type: physicochemical; settings: for Count Rate: derived count rate of scattered light (turbidity); for Log10 Count Rate: turbidity, derived count rate of scattered light, data of Figure 2D
[3] = assay type: physicochemical; set-up: key to Fibril / Fibril Formation / TEM 2cat / Fibril: 1 = fibrils present; 0 non-fibrillar structures; settings: for Fibril / Fibril Formation: 1 mg/mL, uranyl acetate stain, qualitative
[4] = assay type: physicochemical; settings: for ThT Cat. / ThT-Fluorescence (categorical): ThT-active if fluorescence at least twice the control
How it was run: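 Preformed peptide fibrils (1 mg/mL) mixed with 50 µM ThT in PBS, 15 min at RT, fluorescence ex 440/em 488 nm versus PBS blank, triplicates. Zeta potential: peptides at 1 mg/mL in PBS pH 7.4, aged 1 d at RT, diluted in 1 mM KCl, Smoluchowski from electrophoretic mobility.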

[5] = TEM, 1 = fibrils present, 0 = non-fibrillar
[6] = TEM, 1 = fibrils present, 0 = non-fibrillar structures
[7] = category: fibrils present or non-fibrillar

| Substance | CR / % ([1]; fluorescamine assay) | CR ([1]; fluorescamine assay) | Count Rate [2] | Log10 Count Rate [2] | TEM 2cat ([3]; Fig S10 panel D) | Fibril ([3]; Fig S10 panel E) | Fibril / Fibril Formation ([3]; TEM) | Fibril [3, 5] | Fibril [3, 6] | TEM 2cat [3, 7] | Tht category (> 2 to blank = +) ([4]; Fig S10 panel D) | ThT Cat. ([4]; Fig S10 panel E) | ThT Cat, ([4]; ThT category, 1 if Rel. ThT >2) | ThT Cat. / ThT-Fluorescence (categorical) [4] | ThT Cat. ([4]; ThT category, 1 if Rel. ThT >2) | further results |
| --- | --- | --- | --- | --- | --- | --- | --- | --- | --- | --- | --- | --- | --- | --- | --- | --- |
| KIKIQINM | 64% | 64 | 262.1 | 2.418 | 1 | 1 | 1 | 1 | 1 | 1 | 0 (ThT-inactive (N-Fold <2)) | 0 (ThT-inactive (N-Fold <2)) | 0 (ThT-inactive (N-Fold <2)) | 0 (ThT-inactive (N-Fold <2)) | – | ThT Cat. ([4]; ThT fluorescence category, 1 if Rel. ThT >2): 0 (ThT-inactive (N-Fold <2)) |
| HLHLPLL | 37.5% | 37.51 | 200 | 2.301 | 0 | 0 | 0 | 0 | 0 | – | 0 (ThT-inactive (N-Fold <2)) | 0 (ThT-inactive (N-Fold <2)) | 0 (ThT-inactive (N-Fold <2)) | 0 (ThT-inactive (N-Fold <2)) | 0 (ThT-inactive (N-Fold <2)) | TEM 2cat ([3]; FigS12 panel A, fibril category by TEM): 0; Fibril ([3]; FigS12 panel B, TEM): 0; Tht category (> 2 to blank = +) ([4]; FigS12 panel A): 0 (ThT-inactive (N-Fold <2)); ThT Cat, ([4]; FigS12 panel B): 0 (ThT-inactive (N-Fold <2)) |
| QCKIKQIINMWQ [reference compound] | 77% | 76.98 | 2602 | 3.415 | 1 | 1 | 1 | 1 | 1 | 1 | 1 (ThT. Cat is 1, if Rel. ThT >2) | 1 (ThT. Cat is 1, if Rel. ThT >2) | 1 (ThT. Cat is 1, if Rel. ThT >2) | 1 (ThT. Cat is 1, if Rel. ThT >2) | 1 (ThT. Cat is 1, if Rel. ThT >2) | Conversion Rate / % [1]: 76.98%; Conversion Rate / % ([1]; fluorescamine assay): 76.98%; TEM: 1= fibrils, 0= aggregates (micelle), 0.5 = aggregates and fibrils, -1 = nothing obersved, STD prep ([3]; STD prep): 0.5; Tht rel to blank (42.1851851851852) ([4]; ThT fluorescence relative to blank (42.1851851851852 a.u.)): 3.802; Tht rel to blank (42.1851851851852) ([4]; ThT fluorescence relative to blank, blank = 42.1851851851852): 3.802; Tht category (> 1.5 to blank = +) ([4]; category 1/0): 1 (ThT. Cat is 1, if Rel. ThT >2); Tht rel to blank (42.1851851851852) ([4]; relative to blank 42.1851851851852 a.u.): 3.802 |
| QCKFKFQFNM | 98.9% | 98.94 | 3669.6 | 3.565 | 1 | 1 | 1 | 1 | 1 | 1 | 1 (ThT. Cat is 1, if Rel. ThT >2) | 1 (ThT. Cat is 1, if Rel. ThT >2) | 1 (ThT. Cat is 1, if Rel. ThT >2) | 1 (ThT. Cat is 1, if Rel. ThT >2) | 1 (ThT. Cat is 1, if Rel. ThT >2) | – |
